Data reported in US20070149525A1, “Methods of treating amyloidosis using aryl-cyclopropyl derivative aspartyl protease inhibitors” (priority 2005, published 2007).
“And” between values parts separate entries of the source, which are not always exact repeats. Equal entries are not always repeated.

How the values were obtained:
[1] = Brain to plasma ratio in female FVB mice; type: in vivo; settings: 100 mpk dose
[2] = tested on: beta-secretase (BACE) versus cathepsin D (catD); test: CatD/BACE selectivity (ratio of IC50 values); type: biochemical; settings: each value average of four experimental runs; multiple values = more than one experiment
Experimental: Investigation of potential beta-secretase inhibitors produced compounds with increased selectivity for beta-secretase over other aspartyl proteases such as cathepsin D (catD), cathepsin E (catE), Human Immunodeficiency Viral (HIV) protease, and renin. Selectivity was calculated as a ratio of inhibition (IC50) values in which the inhibition of beta-secretase was compared to the inhibition of other aspartyl proteases.
The compounds of formula (I) can be selective for beta-secretase versus catD.
In the following examples, each value is an average of four experimental runs and multiple values for one compound indicate that more than one experiment was conducted.

[3] = tested on: Madin-Darby Canine Kidney (MDCK) cells; test: In vitro permeability across MDCK cell monolayer; type: in vitro ADME; settings: test compound 5 μM, 2 h at 37° C., apical to basolateral
Experimental: (§1) Compounds were evaluated for permeability across a monolayer of Madin-Darby Canine Kidney (MDCK) cells in a transwell device following culturing for 4 days. […] A 0.5 mL of cell suspension (400,000 cells/mL) was placed on membrane and a 1.5 mL media in the bottom wells on day 1. On day 2 and day 3, cells were fed with new media. […] Media was removed from upper chambers and filled with mHBSS with or without CspA, and incubated 30 min at 37° C. with light shaking. Donor chambers were emptied, and filled with test compound at 5 μM in mHBSS. […] Plates were incubated for 2 h at 37° C. with shaking. After 2 h, both the donor and receiver wells were sampled. The bottom chambers were read in a fluorometer to assess LY leakage, and then the media from all wells were assayed by LC/MS/MS to determine compound levels.

[4] = In vitro permeability across MDCK cell monolayer; type: in vitro ADME, Canine; settings: dog, MDCK, test compound 5 μM, 2 h at 37° C., apical to basolateral, read-out: Permeability Forward A > B
Experimental: as §1

P-gp = settings: mdr1 a/b (-/-) and FVB wild-type, mouse, not told, iv, 2.5 mg/kg, 5 min
Experimental: Use of mdr1 (−/−) mouse and its FVB wild-type littermates, which expresses P-gp at their blood-brain barrier (BBB), can distinguish between a test compound of high P-gp liability from one with a more desirable low P-gp liability.
Test compounds are administered to both the mdr1 a/b (−/−) and the FVB wild-type mice (N=4/strain) intravenously at 2.5 mg/Kg through the tail vein. Plasma and brains are harvested at 5 min post administration. Test compound is extracted from tissue in parallel with calibration curves prepared from age-matched control tissues, then quantitated by LC/MS/MS. The ratio of brain concentration (Cb) to plasma concentration (Cp) is used as a measure of brain penetration according to the following formula: Brain Penetration (P)=Cb/Cp Therefore, a measure of brain penetration in the mdr1 (−/−) mouse relative to that of the wild-type animal represents an assessment of in vivo P-gp efflux, which is analogous to that determine in vitro with MDR1-MDCK cells. Calculations are made according to the following formula: Pmdr1/PFVB=In vivo Efflux

CC(=O)NC(Cc1cc(F)cc(F)c1)C(O)CNC1(c2cccc(C(C)(C)C(F)F)c2)CC1 (centres unmarked) [23.57]
Brain AUC (0-6 h) [1]: 57 µM·h | Kp ([1]; mouse, brain and plasma, 100 mg/kg, AUC (0-6 h)): 0.7 | AUC(0-t) ([1]; mouse, plasma, 100 mg/kg, read-out: Plasma AUC (0-6 h)): 86 µM·h

CC(=O)NC(Cc1cc(F)cc(F)c1)C(O)CNC1(c2cccc(C3CC4CCC3C4)c2)CC1 (centres unmarked) [Example 23.1, N-(4-(1-(3-(bicyclo[2.2.1]heptan-2-yl)phenyl)cyclopropylamino)-1-(3,5-difluorophenyl)-3-hydroxybutan-2-yl)acetamide]
Selectivity IC50 catD/IC50 BACE [2]: 3.4

CC(=O)NC(Cc1cc(F)cc(F)c1)C(O)CNC1(c2cccc(C3CCCC3)c2)CC1 (centres unmarked) [Example 23.2, N-(4-(1-(3-cyclopentylphenyl)cyclopropylamino)-1-(3,5-difluorophenyl)-3-hydroxybutan-2-yl)acetamide]
Selectivity IC50 catD/IC50 BACE [2]: 13.0

CC(=O)NC(Cc1cc(F)cc(F)c1)C(O)CNC1(c2cc(O)cc(CC(C)(C)C)c2)CC1 (centres unmarked) [Example 23.3, N-(1-(3,5-difluorophenyl)-3-hydroxy-4-(1-(3-hydroxy-5-neopentylphenyl)cyclopropylamino)butan-2-yl)acetamide]
Selectivity IC50 catD/IC50 BACE [2]: 1.5

CC(=O)NC(Cc1cc(F)cc(F)c1)C(O)CNC1(c2ccn(CC(C)(C)C)n2)CC1 (centres unmarked) [Example 23.4, N-(1-(3,5-difluorophenyl)-3-hydroxy-4-(1-(1-neopentyl-1H-pyrazol-3-yl)cyclopropylamino)butan-2-yl)acetamide]
Selectivity IC50 catD/IC50 BACE [2]: 3.5

CC(=O)NC(Cc1cc(F)cc(F)c1)C(O)CNC1(c2cnn(C(C)(C)C)c2)CC1 (centres unmarked) [Example 23.5, N-(4-(1-(1-tert-butyl-1H-pyrazol-4-yl)cyclopropylamino)-1-(3,5-difluorophenyl)-3-hydroxybutan-2-yl)acetamide]
Selectivity IC50 catD/IC50 BACE [2]: 6.0

CC(=O)NC(Cc1cc(F)cc(F)c1)C(O)CNC1(c2csc(C(C)(C)C)c2)CC1 (centres unmarked) [Example 23.6, N-(4-(1-(5-tert-butylthiophen-3-yl)cyclopropylamino)-1-(3,5-difluorophenyl)-3-hydroxybutan-2-yl)acetamide]
Selectivity IC50 catD/IC50 BACE [2]: 1.6 and 0.9

CC(=O)NC(Cc1cc(F)cc(F)c1)C(O)CNC1(c2cccc(C(C)C(F)(F)F)c2)CC1 (centres unmarked) [Example 23.7, N-(1-(3,5-difluorophenyl)-3-hydroxy-4-(1-(3-(1,1,1-trifluoropropan-2-yl)phenyl)cyclopropylamino)butan-2-yl)acetamide]
Selectivity IC50 catD/IC50 BACE [2]: 1.7

O=C(Cc1nnn[nH]1)NC(Cc1cc(F)cc(F)c1)C(O)CNC1(c2cccc(-n3cccn3)c2)CC1 (centres unmarked) [Example 23.8, N-(4-(1-(3-(1H-pyrazol-1-yl)phenyl)cyclopropylamino)-1-(3,5-difluorophenyl)-3-hydroxybutan-2-yl)-2-(1H-tetrazol-5-yl)acetamide]
Selectivity IC50 catD/IC50 BACE [2]: 3.3

O=C(O)CCCC(=O)NC(Cc1cc(F)cc(F)c1)C(O)CNC1(c2cccc(-n3cccn3)c2)CC1 (centres unmarked) [Example 23.9, 4-(4-(1-(3-(1H-pyrazol-1-yl)phenyl)cyclopropylamino)-1-(3,5-difluorophenyl)-3-hydroxybutan-2-ylcarbamoyl)butanoic acid]
Selectivity IC50 catD/IC50 BACE [2]: 2.6

CC(=O)NC(Cc1cc(F)cc(F)c1)C(O)CNC1(c2cccc(-n3cccn3)c2)CC1 (centres unmarked) [Example 23.11, N-(4-(1-(3-(1H-pyrazol-1-yl)phenyl)cyclopropylamino)-1-(3,5-difluorophenyl)-3-hydroxybutan-2-yl)acetamide]
Permeability Forward A > B [3]: 12.21 ×10⁻⁶ cm/s and 18.32 ×10⁻⁶ cm/s

CC(=O)NC(Cc1cc(F)cc(F)c1)C(O)CNC1(c2cccc(-n3cccn3)c2)CC1 (centres unmarked) [Example 23.12, N-(4-(1-(3-(1H-pyrazol-1-yl)phenyl)cyclopropylamino)-1-(3,5-difluorophenyl)-3-hydroxybutan-2-yl)acetamide]
Permeability Forward A > B [3]: 16.29 ×10⁻⁶ cm/s

CC(=O)NC(Cc1cc(F)cc(F)c1)C(O)CNC1(c2cccc(-n3cccn3)c2)CC1 (centres unmarked) [Example 23.18, N-(4-(1-(3-(1H-pyrazol-1-yl)phenyl)cyclopropylamino)-1-(3,5-difluorophenyl)-3-hydroxybutan-2-yl)acetamide]
Permeability Forward A > B [3]: 8.78 ×10⁻⁶ cm/s

CC(=O)NC(Cc1cc(F)cc(F)c1)C(O)CNC1(c2cccc(-n3cccn3)c2)CC1 (centres unmarked) [Example 23.27, N-(4-(1-(3-(1H-pyrazol-1-yl)phenyl)cyclopropylamino)-1-(3,5-difluorophenyl)-3-hydroxybutan-2-yl)acetamide]
Permeability Forward A > B [3]: 16.35 ×10⁻⁶ cm/s

CC(=O)NC(Cc1cc(F)cc(F)c1)C(O)CNC1(c2cccc(C(C)C(F)(F)F)c2)CC1 (centres unmarked) [Example 23.28, N-(1-(3,5-difluorophenyl)-3-hydroxy-4-(1-(3-(1,1,1-trifluoropropan-2-yl)phenyl)cyclopropylamino)butan-2-yl)acetamide]
Papp A→B at 2 h, 5 μM [4]: 12.6 ×10⁻⁶ cm/s | Permeability Forward A > B [3]: 19.62 ×10⁻⁶ cm/s

CC(=O)NC(Cc1cc(F)cc(F)c1)C(O)CNC1(c2cccc(-n3cccn3)c2)CC1C(C)C (centres unmarked) [Example 23.54, N-(4-(1-(3-(1H-pyrazol-1-yl)phenyl)-2-isopropylcyclopropylamino)-1-(3,5-difluorophenyl)-3-hydroxybutan-2-yl)acetamide]
Papp A→B at 2 h, 5 μM [4]: 11.4 ×10⁻⁶ cm/s | Permeability Forward A > B [3]: 14.8 ×10⁻⁶ cm/s

CCC1CC1(NCC(O)C(Cc1cc(F)cc(F)c1)NC(C)=O)c1cccc(-n2cccn2)c1 (centres unmarked) [Example 23.55, N-(4-(1-(3-(1H-pyrazol-1-yl)phenyl)-2-ethylcyclopropylamino)-1-(3,5-difluorophenyl)-3-hydroxybutan-2-yl)acetamide]
Papp A→B at 2 h, 5 μM [4]: 18.4 ×10⁻⁶ cm/s | Permeability Forward A > B [3]: 14.1 ×10⁻⁶ cm/s and 9.2 ×10⁻⁶ cm/s

CNCC[C@@H](Oc1ccccc1C)c1ccccc1 [atomoxetine]
in vivo P-gp efflux (Pmdr1/PFVB) (P-gp): 1.17
